Experimental data: patent publication US8937167B2 (Washington University, priority 2009, dated 2015)
pEC50: −log10 of the molar value. Read-outs that look alike come from different tables or passages of the source.

Target: FimH (Escherichia coli, UniProt Q1R2J4)
Details: for HAI Titer EC>50: Table 21
[1] = Table 18, Examples 30-36 numbering
[2] = Table 19, Examples 30-36 numbering
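Further: hemagglutination inhibition of guinea pig erythrocytes agglutinated by type 1 piliated uropathogenic E. coli via FimH mannose binding, quantified through serial dilutions of compound.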

SMILES | HAI Titer EC>90 [mM] | further results
NCCOCCOCCNC(=O)c1cc(-c2ccc(OC3OC(CO)C(O)C(O)C3O)cc2)cc([N+](=O)[O-])c1 (centres unmarked) [Compound 3ZFH245, N-[2-[2-(2-aminoethoxy)ethoxy]ethyl]-3-nitro-5-[4-[3,4,5-trihydroxy-6-(hydroxymethyl)tetrahydropyran-2-yl]oxyphenyl]benzamide] | 0.00025 | –
N#Cc1ccccc1-c1ccc(OC2OC(CO)C(O)C(O)C2O)cc1 (centres unmarked) [Compound 3ZFH64, 2-[4-[3,4,5-trihydroxy-6-(hydroxymethyl)tetrahydropyran-2-yl]oxyphenyl]benzonitrile] | 0.002 | –
NCCNC(=O)c1cccc(-c2ccc(O[C@H]3O[C@H](CO)[C@@H](O)[C@H](O)[C@@H]3O)cc2)c1 [Compound 10b, N-(2-Aminoethyl)-3-[4-[(2R,3S,4S,5S,6R)-3,4,5-trihydroxy-6-(hydroxymethyl)tetrahydropyran-2-yl]oxyphenyl]benzamide] | – | HAI Titer EC>90 [1]: 0.003 mM; fold drop in HAI activity (relative to methyl amide 2): 6 fold
NC(=O)c1ccccc1-c1ccc(OC2OC(CO)C(O)C(O)C2O)cc1 (centres unmarked) [Compound 3ZFH66, 2-[4-[3,4,5-trihydroxy-6-(hydroxymethyl)tetrahydropyran-2-yl]oxyphenyl]benzamide] | 0.006 | –
OCC1OC(Oc2ccc3ccccc3c2)C(O)C(O)C1O (centres unmarked) [Compound 1ZFH185, 2-(hydroxymethyl)-6-(2-naphthyloxy)tetrahydropyran-3,4,5-triol] | 0.006 | –
O=C(c1ccccc1)c1cccc(OC2OC(CO)C(O)C(O)C2O)c1 (centres unmarked) [Compound 1ZFH263, phenyl-[3-[3,4,5-trihydroxy-6-(hydroxymethyl)tetrahydropyran-2-yl]oxyphenyl]methanone] | 0.008 | –
COC(=O)c1cc2cc(OC3OC(CO)C(O)C(O)C3O)ccc2s1 (centres unmarked) [Compound 2ZFH297, methyl 5-[3,4,5-trihydroxy-6-(hydroxymethyl)tetrahydropyran-2-yl]oxybenzothiophene-2-carboxylate] | 0.002 | –
COC(=O)c1csc(-c2ccc(O[C@H]3O[C@H](CO)[C@@H](O)[C@H](O)[C@@H]3O)cc2)c1 [Compound 13d] | – | HAI Titer EC>90 [2]: 0.002 mM
COC(=O)c1cncc(-c2ccc(O[C@H]3O[C@H](CO)[C@@H](O)[C@H](O)[C@@H]3O)cc2)c1 [Compound 12b, Methyl 5-[4-[(2R,3S,4S,5S,6R)-3,4,5-trihydroxy-6-(hydroxymethyl)tetrahydropyran-2-yl]oxyphenyl]pyridine-3-carboxylate] | – | HAI Titer EC>90 [2]: 0.00019 mM
N#Cc1ccccc1OC1OC(CO)C(O)C(O)C1O (centres unmarked) [Compound 2ZFH108, 2-[3,4,5-trihydroxy-6-(hydroxymethyl)tetrahydropyran-2-yl]oxybenzonitrile] | 0.006 | –
COc1ccccc1-c1ccc(OC2OC(CO)C(O)C(O)C2O)cc1 (centres unmarked) [Compound 3ZFH188, 2-(hydroxymethyl)-6-[4-(2-methoxyphenyl)phenoxy]tetrahydropyran-3,4,5-triol] | 0.002 | –
O=C(Nc1ccncc1)c1cccc(-c2ccc(O[C@H]3O[C@H](CO)[C@@H](O)[C@H](O)[C@@H]3O)cc2)c1 [Compound 10e, N-(4-Pyridyl)-3-[4-[(2R,3S,4S,5S,6R)-3,4,5-trihydroxy-6-(hydroxymethyl)tetrahydropyran-2-yl]oxyphenyl]benzamide] | – | HAI Titer EC>90 [1]: 0.00025 mM
CN(C)C(=NCCNC(=O)c1cccc(-c2ccc(OC3OC(CO)C(O)C(O)C3O)cc2)c1)N(C)C (centres unmarked) [Compound 3ZFH270, N-[2-[bis(dimethylamino)methyleneamino]ethyl]-3-[4-[3,4,5-trihydroxy-6-(hydroxymethyl)tetrahydropyran-2-yl]oxyphenyl]benzamide] | 0.002 | –
N#Cc1ccccc1OC1OC(CO)C(O)C(O)C1O (centres unmarked) [Compound 3m] | – | pEC50 (read-out: HA 50% Titer, Table 10, Example 6 numbering): 5.22
COC(=O)c1cccc(-c2ccc(NC3OC(CO)C(O)C(O)C3O)cc2)c1 (centres unmarked) [Compound 4ZFH44, methyl 3-[4-[[3,4,5-trihydroxy-6-(hydroxymethyl)tetrahydropyran-2-yl]amino]phenyl]benzoate] | 0.004 | –
OC[C@@H]1OC(Oc2ccc(-c3ccc4ncncc4c3)cc2)[C@H](O)[C@@H](O)[C@@H]1O (stereo partly drawn) [Compound 4ZFH247, (2S,3S,4S,5R)-2-(hydroxymethyl)-6-(4-quinazolin-6-ylphenoxy)tetrahydropyran-3,4,5-triol] | 0.000375 | HAI Titer EC>50 (ZFH/JWJ codes): 0.375 µM; HAI Titer EC>90 (Table 22, ZFH/JWJ codes): 0.000375 mM
OCC1OC(Oc2ccc(Br)cc2)C(O)C(O)C1O (centres unmarked) [Compound 2ZFH46, 2-(4-bromophenoxy)-6-(hydroxymethyl)tetrahydropyran-3,4,5-triol] | 0.032 | –
NC1C(O)C(CO)OC(OCc2ccccc2)C1O [Benzyl 3-amino-3-deoxy-a-D-mannoside, reference compound] | – | HAI Titer EC>90 (mM): >1 mM
COC(=O)c1cccc(OC2OC(CO)C(O)C(O)C2O)c1 (centres unmarked) [Compound 3j] | – | fold loss of HA potency (carboxylic acid relative to matched pair methyl ester 3j): 10 fold

SMILES | HAI Titer EC>90 [mM] | further results
O=[N+]([O-])c1cccc(OC2OC(CO)C(O)C(O)C2O)c1 (centres unmarked) [Compound 2ZFH100, 2-(hydroxymethyl)-6-(3-nitrophenoxy)tetrahydropyran-3,4,5-triol] | 0.016 | –
COC(=O)Cc1cc(OC2OC(CO)C(O)C(O)C2O)ccc1O (centres unmarked) [Compound 1ZFH187, methyl 2-[2-hydroxy-5-[3,4,5-trihydroxy-6-(hydroxymethyl)tetrahydropyran-2-yl]oxy-phenyl]acetate] | 0.015 | –
OCC1OC(Oc2cccc(Cl)c2)C(O)C(O)C1O (centres unmarked) [Compound 2ZFH181, 2-(3-chlorophenoxy)-6-(hydroxymethyl)tetrahydropyran-3,4,5-triol] | 0.008 | –
OCC1OC(Oc2ccc(-c3cccc4cnccc34)cc2)C(O)C(O)C1O (centres unmarked) [Compound 5ZFH61] | – | HAI Titer EC>50 (ZFH/JWJ codes): 0.250 µM
COc1cccc(-c2ccc(OC3OC(CO)C(O)C(O)C3O)cc2)c1 (centres unmarked) [Compound 3ZFH190, 2-(hydroxymethyl)-6-[4-(3-methoxyphenyl)phenoxy]tetrahydropyran-3,4,5-triol] | 0.0015 | –
COC(=O)c1cccc(OC2OC(CO)C(O)C(O)C2O)c1 (centres unmarked) [Compound 1ZFH101, methyl 3-[3,4,5-trihydroxy-6-(hydroxymethyl)tetrahydropyran-2-yl]oxybenzoate] | 0.006 | –
OCC1OC(Oc2ccc(-c3cccnc3)cc2)C(O)C(O)C1O (centres unmarked) [Compound 3ZFH93, 2-(hydroxymethyl)-6-[4-(3-pyridyl)phenoxy]tetrahydropyran-3,4,5-triol] | 0.002 | –
NC(=O)Nc1csc(-c2ccc(O[C@H]3O[C@H](CO)[C@@H](O)[C@H](O)[C@@H]3O)cc2)c1 [Compound 13c, [5-[4-[(2R,3S,4S,5S,6R)-3,4,5-Trihydroxy-6-(hydroxymethyl)tetrahydropyran-2-yl]oxyphenyl]-3-thienyl]urea] | – | HAI Titer EC>90 [2]: 0.001 mM
OCC1OC(Oc2ccccc2Cl)C(O)C(O)C1O (centres unmarked) [Compound 2ZFH180, 2-(2-chlorophenoxy)-6-(hydroxymethyl)tetrahydropyran-3,4,5-triol] | 0.004 | –
OCc1ccccc1-c1ccc(OC2OC(CO)C(O)C(O)C2O)cc1 (centres unmarked) [Compound 14g] | – | fold less potent in HA titer (ortho 14g relative to meta 14h): over 5 fold; pEC50 (read-out: 50% HA titer, Example 6 numbering): 4.80; EC90 (read-out: HA 50% titer EC90, Table 12, Example 6 numbering): 16 µM
CNS(=O)(=O)c1ccccc1-c1ccc(OC2OC(CO)C(O)C(O)C2O)cc1 (centres unmarked) [Compound 3ZFH176, N-methyl-2-[4-[3,4,5-trihydroxy-6-(hydroxymethyl)tetrahydropyran-2-yl]oxyphenyl]benzenesulfonamide] | 0.004 | –
NC(=O)Nc1csc(-c2ccc(OC3OC(CO)C(O)C(O)C3O)cc2)c1 (centres unmarked) [Compound 4ZFH303] | – | HAI Titer EC>50 (ZFH/JWJ codes): 1.000 µM
O=[N+]([O-])c1ccc(OC2OC(CO)C(O)C(O)C2O)cc1 (centres unmarked) [PNP-mannoside, reference compound] | 0.031 | –
OCC1OC(Oc2ccc(-c3ccncc3)cc2)C(O)C(O)C1O (centres unmarked) [Compound 3ZFH96, 2-(hydroxymethyl)-6-[4-(4-pyridyl)phenoxy]tetrahydropyran-3,4,5-triol] | 0.002 | –
COC(=O)c1cc2ccc(OC3OC(CO)C(O)C(O)C3O)cc2s1 (centres unmarked) [Compound 2ZFH304, methyl 6-[3,4,5-trihydroxy-6-(hydroxymethyl)tetrahydropyran-2-yl]oxybenzothiophene-2-carboxylate] | 0.002 | –
COC(=O)c1cccc(-c2ccc(OC3O[C@@H](CO)[C@@H](O)[C@H](O)[C@H]3O)c(F)c2)c1 (stereo partly drawn) [Compound 4ZFH220, methyl 3-[3-fluoro-4-[(3R,4S,5S,6S)-3,4,5-trihydroxy-6-(hydroxymethyl)tetrahydropyran-2-yl]oxy-phenyl]benzoate] | 0.00075 | HAI Titer EC>50 (ZFH/JWJ codes): 0.750 µM; HAI Titer EC>90 (Table 22, ZFH/JWJ codes): 0.00075 mM
O=C(NCC1O[C@@H](CO)[C@@H](O)[C@H](O)[C@H]1O)c1ccc(Br)cc1 (stereo partly drawn) [Compound 4ZFH123, 4-bromo-N-[[(3R,4R,5S,6S)-3,4,5-trihydroxy-6-(hydroxymethyl)tetrahydropyran-2-yl]methyl]benzamide] | 0.016 | HAI Titer EC>50 (ZFH/JWJ codes): 16.000 µM; HAI Titer EC>90 (Table 22, ZFH/JWJ codes): 0.016 mM
O=C(NCCCCOC1OC(CO)C(O)C(O)C1O)c1ccc(C(=O)O)c(-c2c3ccc(=O)cc-3oc3cc(O)ccc23)c1 (centres unmarked) [Compound 1ZFH134A, 2-(3-hydroxy-6-oxo-xanthen-9-yl)-4-[4-[3,4,5-trihydroxy-6-(hydroxymethyl)tetrahydropyran-2-yl]oxybutylcarbamoyl]benzoic acid] | 0.125 | –
CN(C)C(=O)c1cccc(-c2ccc(OC3OC(CO)C(O)C(O)C3O)cc2)c1 (centres unmarked) [JJ-I-93, N,N-dimethyl-3-[4-[3,4,5-trihydroxy-6-(hydroxymethyl)tetrahydropyran-2-yl]oxyphenyl]benzamide] | 0.003 | –
